Molecular target: T1, Tct (tricarboxylate citrate transporter; tricarboxylate carrier) (Mucor circinelloides, UniProt S2K4S3)
T1 construct: gene HMPREF1544_06035; full-length tct (321 residues), E. coli codon-optimised, pET30a(+) NdeI/HindIII with C-terminal His tag, E. coli BL21(DE3); urea-denatured, Ni-purified, renatured, reconstituted in liposomes
Test: […]citrate/citrate exchange in Tct-reconstituted proteoliposomes, inhibitor-stop method
Format: biochemical
Conditions: 10 mM internal citrate, 0.01 mM external [14C]citrate, 2 min

T1 sequence (S2K4S3 entry or part of it): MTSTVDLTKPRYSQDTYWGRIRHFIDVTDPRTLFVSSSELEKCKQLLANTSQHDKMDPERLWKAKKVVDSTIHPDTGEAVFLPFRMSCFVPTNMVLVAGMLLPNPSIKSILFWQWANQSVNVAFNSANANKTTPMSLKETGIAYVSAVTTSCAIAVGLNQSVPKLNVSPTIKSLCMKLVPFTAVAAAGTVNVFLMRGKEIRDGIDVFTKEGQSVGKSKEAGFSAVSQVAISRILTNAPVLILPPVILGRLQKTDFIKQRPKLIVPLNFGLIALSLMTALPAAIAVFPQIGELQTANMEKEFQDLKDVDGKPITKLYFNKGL

In the case of `Cc1ncc(COP(=O)(O)O)c(C=O)c1O` [pyridoxal 5'-phosphate], the “inhibition at 20 mM” value is reported as “Pyridoxal-5'-phosphate (PLP) and pHMB strongly inhibit Tct transport activity”.

Reference: article PMC8696028, “Tricarboxylate Citrate Transporter of an Oleaginous Fungus Mucor circinelloides WJ11: From Function to Structure and Role in Lipid Production” (Frontiers in Nutrition, 2021)
